Entries after “also recorded” stand apart in the source; their conditions may differ.
Columns and labels:
[1] = biological target: RPN13 and BRD4 (Homo sapiens, UniProt O60885+Q16186); assay: Dimerization assay of RPN13 and BRD4; type: binding; details: indicated concentrations
Text: (§1) A dimerization assay was used to detect the RPN13 and BRD4 dimerization by RAJQ9 (FIG. 40A). […] New compounds were synthesized in the series using the same conditions as RAJQ9 synthesis (See FIG. 26). It was confirmed in the BRD4 assay that the exemplary BRD4 degrader compounds (RAJQ14, RAJQ14-ester) bind to BRD4 (FIG. 44). It was observed that Myc was lost with BRD4 degraders in the MCF7 breast cancer cell line (FIG. 45). For the results shown in FIG. 45, the cells used were MCF7 WT, the exemplary BRD4 degrader compound was RAJQ14 (at 3 μM concentration), and the time points shown in the assay were 2 hours, 6 hours, 16 hours, and 24 hours. […] For the results shown in FIG. 46, the cells used were MCF7 WT, the drug was the exemplary FKBP12 degrader RAFKBP4 (at 3 μM concentration), and the time points shown in the assay were 2 hours, 6 hours, 16 hours, and 24 hours.

[2] = biological target: T1, FKBP12 (Homo sapiens, UniProt P62942); assay: FKBP12 degradation in MCF7 breast cancer cell line; type: cell-based; details: MCF7 WT; 3 μM; 2, 6, 16 and 24 hours
T1 construct: the cells used were MCF7 WT; endogenous in cells; host or cells: MCF7 WT
Text: as §1

RPN13 and BRD4, sequence (Q16186 whole entry, other chains not shown): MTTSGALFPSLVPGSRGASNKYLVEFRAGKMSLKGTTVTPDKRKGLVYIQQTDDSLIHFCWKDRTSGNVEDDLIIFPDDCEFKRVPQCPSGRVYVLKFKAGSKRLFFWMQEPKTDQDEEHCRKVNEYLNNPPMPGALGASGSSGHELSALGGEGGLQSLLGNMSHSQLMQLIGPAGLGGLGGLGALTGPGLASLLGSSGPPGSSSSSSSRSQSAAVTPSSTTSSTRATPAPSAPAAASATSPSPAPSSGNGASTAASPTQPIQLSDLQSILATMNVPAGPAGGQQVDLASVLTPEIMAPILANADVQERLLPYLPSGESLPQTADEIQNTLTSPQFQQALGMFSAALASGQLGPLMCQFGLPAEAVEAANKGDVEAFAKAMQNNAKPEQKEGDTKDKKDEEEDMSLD
T1 sequence (P62942 whole entry): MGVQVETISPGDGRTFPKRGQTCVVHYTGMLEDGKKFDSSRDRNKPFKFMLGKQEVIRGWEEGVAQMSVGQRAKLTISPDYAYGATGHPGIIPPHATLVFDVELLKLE

FKBP12 degradation in MCF7 cells [2]	SMILES	RPN13 and BRD4 dimerization [1]
	Cc1sc2c(c1C)C(c1ccc(Cl)cc1)=N[C@@H](CC(=O)NCCN1CCN(CCCCCCOc3ccc(C[C@H](N)C(=O)N4C/C(=C\c5ccc(Cl)c(Cl)c5)C(=O)/C(=C/c5ccc(Cl)c(Cl)c5)C4)cc3)CC1)c1nnc(C)n1-2 [RAJQ9]	can bring these two proteins (RPN13 and BRD4) together; also recorded: can dimerize these two proteins together
FKBP12 degradation	CC[C@H](C(=O)N1CCCC[C@H]1C(=O)OC(CCc1ccc(OC)c(OC)c1)c1cccc(OCC(=O)NCCOCCOCCOCCC(=O)NCCOCCN[C@@H](Cc2ccccc2)C(=O)N2C/C(=C\c3ccc(Cl)c(Cl)c3)C(=O)/C(=C/c3ccc(Cl)c(Cl)c3)C2)c1)c1cc(OC)c(OC)c(OC)c1 (some centres unmarked) [RAFKBP4]	
